These results are taken from patent publication US20150290176A1, “USE OF MTOR INHIBITORS TO TREAT VASCULAR COGNITIVE IMPAIRMENT” (THE BOARD OF REGENTS OF THE UNIVERSITY OF TEXAS SYSTEM, priority 2012, published 2015).

Where two headings read alike, the source gives them in different places.

For data set [1], the system named is NO production in cortical vessels. Description: In vivo imaging of NO production in cortical vessels with NO-sensitive probe DAF-FM. Also noted: species or system mouse. As to conditions: L-NAME 30 mg/kg intraperitoneally before rapamycin. An excerpt:
(§1) In vivo imaging experiments. Details of experimental procedures were identical to our previously published protocols (Zheng, et al., 2010). Briefly, mice were anesthetized with volatile isoflurane through a nosecone (3% induction, 1.5% maintenance). The depth of anesthesia was monitored by regular checking of whisker movement and the pinch withdrawal reflex of the hind limb and tail. Also, during surgery and imaging, three main vital signs including heart rate, respiratory rate, and oxygen saturation were periodically assessed by use of the MouseOx system (STARR Life Sciences). Body temperature was maintained at 37° C. by use of feedback-controlled heating pad (Gaymar T/Pump). Initially, the scalp was shaved, incised along the midline and retracted to expose the dorsal skull. Then removal of periosteum by forceps and cleaning of skull by a sterile cotton swab were performed. A stainless steel head plate was glutted (VetBond, 3M, St. Paul, Minn.) to dorsal skull and screwed to a custom-made stereotaxic frame. To create a thin-skull cranial window over the somotosensory cortex, skull was initially thinned by high-speed electric drill (Fine Science Tools, Foster City, Calif.) and subsequently thinned to approximate 50 μm by using a surgical blade under a dissecting microscope (Nikon SMZ800). […] The diameter of blood vessels was analyzed by Image J plugin vessel diameter. […]

The next data set deals with AD mice. The data set is described as follows: Cerebral blood flow by MRI continuous arterial spin labeling. In kind it is in vivo, mouse. To be noted: rapamycin-fed 16 weeks, then L-NAME for 4 additional weeks. The procedure: Rapamycin treatment. Mice were fed chow containing either microencapsulated enteric-coated rapamycin at 2.24 mg/kg or a control diet as described by Harrison et al., 2009. Rapamycin was used at 14 mg per kg food (verified by HPLC). On the assumption that the average mouse weighs 30 gm and consumes 5 gm of food/day, this dose supplied 2.24 mg rapamycin per kg body weight/day (Harrison, et al., 2009). All mice were given ad libitum access to rapamycin or control food and water for the duration of the experiment. Body weights and food intake were measured weekly. […] Littermates (transgenic and non-transgenic mice) were housed together, thus we could not distinguish effects of genotype on food consumption. […]
Animal Preparation for Functional Neuroimaging. […] Respiration rate (90-130 bpm) and rectal temperature (37±0.5° C.) were continuously monitored. Heart rate and blood oxygen saturation level (SaO2) were recorded using a MouseOx system (STARR Life Science Corp., Oakmont, Pa.) and maintained within normal physiological ranges.
Cerebral Blood Flow. Quantitative CBF (with unit of […]) was measured using the MRI based continuous arterial spin labeling (CASL) techniques (Duong, et al., 2000; Muir, et al., 2008) on a horizontal 7T/30 cm magnet and a 40G/cm BGA12S gradient insert (Bruker, Billerica, Mass.). […]

The next data set concerns cortical vessels. The data set is described as follows: In vivo 2-photon imaging of cortical vessel diameter. Details: species or system mouse.
From the text: as §1

Data set [2] in a line: Body weight and food intake during rapamycin feeding. In kind it is in vivo, mouse. The procedure:
Rapamycin treatment. Mice were fed chow containing either microencapsulated enteric-coated rapamycin at 2.24 mg/kg or a control diet as described by Harrison et al., 2009. Rapamycin was used at 14 mg per kg food (verified by HPLC). On the assumption that the average mouse weighs 30 gm and consumes 5 gm of food/day, this dose supplied 2.24 mg rapamycin per kg body weight/day (Harrison, et al., 2009). All mice were given ad libitum access to rapamycin or control food and water for the duration of the experiment. Body weights and food intake were measured weekly. […] Littermates (transgenic and non-transgenic mice) were housed together, thus we could not distinguish effects of genotype on food consumption. Even though there were no differences in food consumption, body weights of rapamycin-fed non-transgenic, but not transgenic, females increased moderately during treatment, (6.8% increase for rapamycin-fed vs control-fed non-transgenic females). The higher increase in body weight for non-transgenic animals is not unexpected, since non-transgenic animals of both genders tend to be slightly (1-3 g) heavier than AD transgenic.

Data set [3] is described as follows: Rapamycin levels in brain regions of AD mice chronically fed rapamycin-supplemented chow. In kind it is in vivo. As to conditions: PDAPP transgenic (AD mice), mouse, oral, 2.24 mg/kg body weight/day, AD mice chronically fed rapamycin chow (2.24 mg/kg/day). The procedure: The inventors used magnetic resonance imaging (MRI) arterial spin labeling (ASL) techniques in vivo, as well as other functional imaging, in vivo optical imaging, and behavioral and biochemical tools to determine whether rapamycin treatment affects the progression of established deficits in the transgenic PDAPP mouse model of Alzheimer's Disease (Galvan, et al., 2005; Hsia, et al., 1999; Mucke, et al., 2000) (“AD mice”). AD mice and unaffected littermates were treated with rapamycin after the onset of AD-like impairments at 7 months of age (Galvan, et al., 2005; Hsia, et al., 1999; Mucke, et al., 2000) for a total of 16 weeks. Rapamycin levels in brain regions of AD mice chronically fed with rapamycin ranged from 0.98 to 2.40 pg/mg. Levels in hippocampus were 1.55 pg/mg (see FIG. 5).
Rapamycin treatment. Mice were fed chow containing either microencapsulated enteric-coated rapamycin at 2.24 mg/kg or a control diet as described by Harrison et al., 2009. Rapamycin was used at 14 mg per kg food (verified by HPLC). On the assumption that the average mouse weighs 30 gm and consumes 5 gm of food/day, this dose supplied 2.24 mg rapamycin per kg body weight/day (Harrison, et al., 2009). All mice were given ad libitum access to rapamycin or control food and water for the duration of the experiment. Body weights and food intake were measured weekly. […]

As to `COC(=O)[C@@H](N)CCCNC(=N)N[N+](=O)[O-]` [L-NAME, L-NG-Nitroarginine methyl ester], the “Effect of L-NAME pretreatment on rapamycin-induced NO release” value in data set [1] is “abrogated”. In addition, the “CBF in rapamycin-fed AD mice injected with L-NAME” value in the data set with AD mice is given as “CBF deficits comparable to control-fed AD mice”. In addition, the “Effect of L-NAME pretreatment on rapamycin-induced vasodilation” value in the data set with cortical vessels (L-NAME 30 mg/kg intraperitoneally before rapamycin) is on record as “abrogated”.

`CO[C@H]1C[C@@H]2CC[C@@H](C)[C@@](O)(O2)C(=O)C(=O)N2CCCC[C@H]2C(=O)O[C@H]([C@H](C)C[C@@H]2CC[C@@H](O)[C@H](OC)C2)CC(=O)[C@H](C)/C=C(\C)[C@@H](O)[C@@H](OC)C(=O)[C@H](C)C[C@H](C)/C=C/C=C/C=C/1C` [rapamycin]: the Food consumption entry in data set [2] (control- vs rapamycin-fed groups) is “comparable”. For the same compound, the “Body weight increase, rapamycin-fed vs control-fed” value in data set [2] (non-transgenic females, during treatment) amounted to 6.8%. Moreover, in the data set with cortical vessels (rapamycin 10 mg/kg intraperitoneally, 10 min after administration), the “Increase in diameter of small and medium-sized cortical vessels” value is given as 23-35%. The concentration at 16 weeks in data set [3] (hippocampus, read-out: Rapamycin levels in hippocampus) was 1.55 ng/g; in data set [3] (range over brain regions, read-out: Rapamycin levels in brain regions), 0.98 to 2.4 ng/g.
